Test results as given in patent US4965280A, “Antifungal carbinols” (E. I. Du Pont de Nemours and Company, priority 1989, dated 1990).

Key:
[1] = test system: GOOSEGRASS; test: Test F; type: in vivo, Eleusine indica
Description: (§1) Weed species were planted 3 or 4 per 15-cm diameter pot in Sassafras sandy loam (pH 6.8; 1% OM). Cotton was planted separately in the same sized pot. Postemergence plantings were made 12-16 days prior to treating so plants were in the 2- to 3-leaf stage (5-12 cm tall). Preemergence plantings were made the day before treating. Compounds were sprayed in a suitable non-phytotoxic solvent at 374 l/ha, then after 3 weeks of growth in a greenhouse, plant responses were visually rated on a percent scale where 0=no injury and 100=plant death.

[2] = test system: BRDLF SNGLGRASS; test: Test F; type: in vivo, Brachiaria platyphylla
Description: as §1

[3] = test system: PURPLE NUTSEDGE; test: Test F; type: in vivo, Cyperus rotundus
Description: as §1

[4] = test system: PRICKLY SIDA; test: Test F; type: in vivo, Sida spinosa
Description: as §1

[5] = test system: IVY MORNINGGLORY; test: Test F; type: in vivo, Ipomoea hederacea
Description: as §1

[6] = test system: BERMUDAGRASS; test: Test F; type: in vivo, Cynodon dactylon
Description: as §1

[7] = test system: COCKLEBUR; test: Test F; type: in vivo, Xanthium pensylvanicum
Description: as §1

[8] = test system: REDROOT PIGWEED; test: Test F; type: in vivo, Amaranthus retroflexus
Description: as §1

[9] = test system: COKER COTTON; test: Test F; type: in vivo, Gossypium hirsutum
Description: as §1

[10] = test system: VELVETLEAF; test: Test F; type: in vivo, Abutilon theophrasti
Description: as §1

[11] = test system: GROUND CHERRY; test: Test F; type: in vivo, Physalis heterophylla
Description: as §1

[12] = test system: SICKLEPOD; test: Test F; type: in vivo, Cassia obtusifolia
Description: as §1

[13] = test system: LAMBSQUARTER; test: Test F; type: in vivo, Chenopodium album
Description: as §1

[14] = test system: LADY SMARTWEED; test: Test F; type: in vivo, Polygonum persicaria
Description: as §1

[15] = test system: FALL PANICUM; test: Test F; type: in vivo, Panicum dichotomiflorum
Description: as §1

[16] = test system: LARGE CRABGRASS; test: Test F; type: in vivo, Digitaria sanguinalis
Description: as §1

[17] = test system: JOHNSONGRASS; test: Test F; type: in vivo, Sorghum halepense
Description: as §1

[18] = test system: RICE INDICA TOL; test: Test C rice paddy; type: in vivo; conditions: 21 days
How it was run: (§2)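 Transplanted paddy test in flooded silt loam: Japonica and Indica rice at 2.0–2.5 leaf stage, water plantain, Scirpus and Cyperus seedlings or sprouted tubers, barnyardgrass from seed. Water raised to 3 cm 3–4 days after planting; compound in nonphytotoxic solvent added to paddy water within 24 h. Greenhouse.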

[19] = test system: RICE JAP TOL; test: Test C rice paddy; type: in vivo, Japonica rice; conditions: 21 days
How it was run: as §2

C=C(c1ccc(F)cc1)C(O)(Cn1cncn1)c1ccc(F)cc1F (stereo not drawn) [Example 4, 2-(2,4-Difluorophenyl)-3-(4-fluorophenyl)-1-(1H-1,2,4-triazol-1-yl)-3-buten-2-ol]
plant response ([1]; PREEMERGENCE 0032 GM/HA): 80% | plant response ([1]; PREEMERGENCE 0064 GM/HA): 80% | plant response ([1]; PREEMERGENCE 0125 GM/HA): 100% | plant response ([1]; PREEMERGENCE 0250 GM/HA): 100% | plant response ([1]; PREEMERGENCE 0500 GM/HA): 100% | plant response ([2]; PREEMERGENCE 0032 GM/HA): 0% | plant response ([2]; PREEMERGENCE 0064 GM/HA): 0% | plant response ([2]; PREEMERGENCE 0125 GM/HA): 0% | plant response ([2]; PREEMERGENCE 0250 GM/HA): 0% | plant response ([2]; PREEMERGENCE 0500 GM/HA): 30% | plant response ([3]; PREEMERGENCE 0032 GM/HA): 0% | plant response ([3]; PREEMERGENCE 0064 GM/HA): 0% | plant response ([3]; PREEMERGENCE 0125 GM/HA): 0% | plant response ([3]; PREEMERGENCE 0250 GM/HA): 0% | plant response ([3]; PREEMERGENCE 0500 GM/HA): 0% | plant response ([4]; PREEMERGENCE 0032 GM/HA): 0% | plant response ([4]; PREEMERGENCE 0064 GM/HA): 0% | plant response ([4]; PREEMERGENCE 0125 GM/HA): 0% | plant response ([4]; PREEMERGENCE 0250 GM/HA): 100% | plant response ([4]; PREEMERGENCE 0500 GM/HA): 90% | plant response ([5]; PREEMERGENCE 0032 GM/HA): 0% | plant response ([5]; PREEMERGENCE 0064 GM/HA): 0% | plant response ([5]; PREEMERGENCE 0125 GM/HA): 0% | plant response ([5]; PREEMERGENCE 0250 GM/HA): 0% | plant response ([5]; PREEMERGENCE 0500 GM/HA): 0% | plant response ([6]; PREEMERGENCE 0032 GM/HA): 0% | plant response ([6]; PREEMERGENCE 0064 GM/HA): 20% | plant response ([6]; PREEMERGENCE 0125 GM/HA): 95% | plant response ([6]; PREEMERGENCE 0250 GM/HA): 100% | plant response ([6]; PREEMERGENCE 0500 GM/HA): 100% | plant response ([7]; PREEMERGENCE 0032 GM/HA): 0% | plant response ([7]; PREEMERGENCE 0064 GM/HA): 0% | plant response ([7]; PREEMERGENCE 0125 GM/HA): 0% | plant response ([7]; PREEMERGENCE 0250 GM/HA): 0% | plant response ([7]; PREEMERGENCE 0500 GM/HA): 0% | plant response ([8]; PREEMERGENCE 0032 GM/HA): 50% | plant response ([8]; PREEMERGENCE 0064 GM/HA): 70% | plant response ([8]; PREEMERGENCE 0125 GM/HA): 60% | plant response ([8]; PREEMERGENCE 0250 GM/HA): 100% | plant response ([8]; PREEMERGENCE 0500 GM/HA): 100% | plant response ([9]; PREEMERGENCE 0032 GM/HA): 0% | plant response ([9]; PREEMERGENCE 0064 GM/HA): 0% | plant response ([9]; PREEMERGENCE 0125 GM/HA): 0% | plant response ([9]; PREEMERGENCE 0250 GM/HA): 0% | plant response ([9]; PREEMERGENCE 0500 GM/HA): 0% | plant response ([10]; PREEMERGENCE 0032 GM/HA): 0% | plant response ([10]; PREEMERGENCE 0064 GM/HA): 0% | plant response ([10]; PREEMERGENCE 0125 GM/HA): 0% | plant response ([10]; PREEMERGENCE 0250 GM/HA): 0% | plant response ([10]; PREEMERGENCE 0500 GM/HA): 30% | plant response ([11]; PREEMERGENCE 0032 GM/HA): 0% | plant response ([11]; PREEMERGENCE 0064 GM/HA): 0% | plant response ([11]; PREEMERGENCE 0125 GM/HA): 0% | plant response ([11]; PREEMERGENCE 0250 GM/HA): 0% | plant response ([11]; PREEMERGENCE 0500 GM/HA): 0% | plant response ([12]; PREEMERGENCE 0032 GM/HA): 0% | plant response ([12]; PREEMERGENCE 0064 GM/HA): 0% | plant response ([12]; PREEMERGENCE 0125 GM/HA): 0% | plant response ([12]; PREEMERGENCE 0250 GM/HA): 0% | plant response ([12]; PREEMERGENCE 0500 GM/HA): 0% | plant response ([13]; PREEMERGENCE 0032 GM/HA): 0% | plant response ([13]; PREEMERGENCE 0064 GM/HA): 20% | plant response ([13]; PREEMERGENCE 0125 GM/HA): 20% | plant response ([13]; PREEMERGENCE 0250 GM/HA): 60% | plant response ([13]; PREEMERGENCE 0500 GM/HA): 70% | plant response ([14]; PREEMERGENCE 0032 GM/HA): 0% | plant response ([14]; PREEMERGENCE 0064 GM/HA): 0% | plant response ([14]; PREEMERGENCE 0125 GM/HA): 0% | plant response ([14]; PREEMERGENCE 0250 GM/HA): 20% | plant response ([14]; PREEMERGENCE 0500 GM/HA): 20% | plant response ([15]; PREEMERGENCE 0032 GM/HA): 90% | plant response ([15]; PREEMERGENCE 0064 GM/HA): 90% | plant response ([15]; PREEMERGENCE 0125 GM/HA): 90% | plant response ([15]; PREEMERGENCE 0250 GM/HA): 100% | plant response ([15]; PREEMERGENCE 0500 GM/HA): 100% | plant response ([16]; PREEMERGENCE 0032 GM/HA): 0% | plant response ([16]; PREEMERGENCE 0064 GM/HA): 20% | plant response ([16]; PREEMERGENCE 0125 GM/HA): 100% | plant response ([16]; PREEMERGENCE 0250 GM/HA): 100% | plant response ([16]; PREEMERGENCE 0500 GM/HA): 100% | plant response ([17]; PREEMERGENCE 0032 GM/HA): 0% | plant response ([17]; PREEMERGENCE 0064 GM/HA): 0% | plant response ([17]; PREEMERGENCE 0125 GM/HA): 20% | plant response ([17]; PREEMERGENCE 0250 GM/HA): 50% | plant response ([17]; PREEMERGENCE 0500 GM/HA): 50%

C=C(c1ccccc1Cl)C(O)(Cn1cncn1)c1ccc(F)cc1F (stereo not drawn) [Example 35]
plant response ([18]; 0032 G/HA): 0 | plant response ([18]; 0125 G/HA): 55 | plant response ([18]; 0500 G/HA): 55 | plant response ([18]; 2000 G/HA): 60 | plant response ([19]; 0032 G/HA): 0 | plant response ([19]; 0125 G/HA): 20 | plant response ([19]; 0500 G/HA): 50 | plant response ([19]; 2000 G/HA): 50
